We go through 3 compounds from ChEMBL document CHEMBL1130582, “Substrate specificity of thermostable farnesyl diphosphate synthase with alkyl group homologs of isopentenyl diphosphate” (1998).

Assay [1] concerns the target T1, Farnesyl diphosphate synthase (Geobacillus stearothermophilus) (UniProt Q08291).
T1 sequence (whole entry): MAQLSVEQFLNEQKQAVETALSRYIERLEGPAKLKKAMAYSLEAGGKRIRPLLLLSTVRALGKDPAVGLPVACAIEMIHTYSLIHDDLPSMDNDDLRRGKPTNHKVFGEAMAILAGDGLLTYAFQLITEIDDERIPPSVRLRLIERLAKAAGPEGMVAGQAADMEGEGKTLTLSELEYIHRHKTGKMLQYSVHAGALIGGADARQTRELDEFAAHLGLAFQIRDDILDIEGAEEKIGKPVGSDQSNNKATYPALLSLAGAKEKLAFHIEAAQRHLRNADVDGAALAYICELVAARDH
Nature of the assay: (§1) Relative yield of the product (3b) derived from the compound with DMAPP in the enzymatic reaction catalyzed by FPP synthase from Bacillus stearothermophilus. The format is functional.

Assay [2] deals with T1, Farnesyl diphosphate synthase (Geobacillus stearothermophilus). Put plainly: Relative yield of the product (4b) derived from the compound with DMAPP in the enzymatic reaction catalyzed by FPP synthase from Bacillus stearothermophilus. The assay is classed as functional.
For assay [3], the system named is Farnesyl diphosphate synthase (Sus scrofa). Put plainly: Relative yield of the product (4b') derived from the compound with GPP in the enzymatic reaction catalyzed by FPP synthase from porcine liver.
Assay [4] shares this test system. Put plainly: Relative yield of the product (4b) derived from the compound with DMAPP in the enzymatic reaction catalyzed by FPP synthase from porcine liver.
Assay [5] relates to Farnesyl diphosphate synthase (Aves). Nature of the assay: Relative yield of the product (4b') derived from the compound with GPP in the enzymatic reaction catalyzed by FPP synthase from avian liver.
The test system is the same in assay [6]. Put plainly: Relative yield of the product (4b) derived from the compound with DMAPP in the enzymatic reaction catalyzed by FPP synthase from avian liver.
Assay [7] deals with Farnesyl diphosphate synthase (Sus scrofa). Nature of the assay: Relative yield of the product (3b) derived from the compound with DMAPP in the enzymatic reaction catalyzed by FPP synthase from porcine liver; ND = Not detected.
In assay [8] the target is T1, Farnesyl diphosphate synthase (Geobacillus stearothermophilus). Nature of the assay: Relative yield of the product (4b') derived from the compound with GPP in the enzymatic reaction catalyzed by FPP synthase from Bacillus stearothermophilus. The format is functional.
For assay [9], the system named is Farnesyl diphosphate synthase (Aves). Nature of the assay: Relative yield of the product (3b) derived from the compound with DMAPP in the enzymatic reaction catalyzed by FPP synthase from avian liver.
The test system of assay [10] is Geobacillus stearothermophilus. Nature of the assay: Relative yield of the product (3c) derived from the compound with DMAPP in the enzymatic reaction catalyzed by FPP synthase from Bacillus stearothermophilus. The assay is classed as functional.
For assay [11], the species on record is Sus scrofa. Nature of the assay: Relative yield of the product (4c) derived from the compound with GPP in the enzymatic reaction catalyzed by FPP synthase from porcine liver. The format is functional.
Assay [12] deals with Geobacillus stearothermophilus. Put plainly: Relative yield of the product (4c) derived from the compound with GPP in the enzymatic reaction catalyzed by FPP synthase from Bacillus stearothermophilus. The format is functional.
Assay [13] has as its system Aves. Put plainly: Relative yield of the product (4c) derived from the compound with GPP in the enzymatic reaction catalyzed by FPP synthase from avian liver; ND = Not detected. The assay is classed as functional.
Assay [14] has as its system Aves. Put plainly: Relative yield of the product (3c) derived from the compound with DMAPP in the enzymatic reaction catalyzed by FPP synthase from avian liver. The assay is classed as functional.
For assay [15], the species on record is Sus scrofa. Nature of the assay: Relative yield of the product (3c) derived from the compound with DMAPP in the enzymatic reaction catalyzed by FPP synthase from porcine liver. The format is functional.
The species entered for assay [16] is Sus scrofa. Nature of the assay: Relative yield of the product (4d) derived from the compound with DMAPP in the enzymatic reaction catalyzed by FPP synthase from porcine liver; ND = Not detected. The format is functional.
Assay [17] deals with Geobacillus stearothermophilus. Put plainly: Relative yield of the product (4d) derived from the compound with GPP in the enzymatic reaction catalyzed by FPP synthase from B. stearothermophilus; ND = Not detected. The assay is classed as functional.
The species named for assay [18] is Sus scrofa. Put plainly: Relative yield of the product (3b) derived from the compound with DMAPP in the enzymatic reaction catalyzed by FPP synthase from porcine liver; ND = Not detected. The format is functional, organism-based.
Assay [19] has as its system Aves. Put plainly: Relative yield of the product (4d) derived from the compound with DMAPP in the enzymatic reaction catalyzed by FPP synthase from avian liver; ND = Not detected. The assay is classed as functional.
Assay [20] relates to Geobacillus stearothermophilus. Described as §1. The assay is classed as functional.
The test system of assay [21] is Aves. Put plainly: Relative yield of the product (3b) derived from the compound with DMAPP in the enzymatic reaction catalyzed by FPP synthase from avian liver; ND = Not detected. The assay is classed as functional.

Turning to `C=C(CC)CCOP(=O)(O)OP(=O)(O)O`, the Production stood at 68% in assay [1]; 40% in assay [2]; 27% in assay [3]; 10% in assay [4]; 25% in assay [5]; 6.7% in assay [6]. Also, the Production result in [7] is “Not detected”; in [8], 48%; in assay [9], 1%.

Take `C=C(CCC)CCOP(=O)(O)OP(=O)(O)O`: the Production in assay [10] was 29%; in the assay listed under Sus scrofa [11], 1.8%; in assay [12] it was 10%; in the assay with Aves [13] it was “Not detected”; in the assay with Aves [14], 1%; in the assay filed under Sus scrofa [15], 1.4%.

Consider `C=C(CCCC)CCOP(=O)(O)OP(=O)(O)O`, for which the Production entry in the assay listed under Sus scrofa [16] is “Not detected”; in [17], “Not detected”; in the assay listed under Sus scrofa [18], “Not detected”; with Aves [19], “Not detected”; in assay [20] it was 4%; in the assay with Aves [21], “Not detected”.
